Assays:
[1] = test system: female Sprague-Dawley rats; assay: Adrenal gland functionality after dosing: plasma corticosterone after ACTH challenge; format: in vivo, rat; conditions: paclitaxel in Cremophor EL/ethanol, 4 mg/kg intraperitoneally Days 1, 4, 7; FIG. 10
Description: A paclitaxel stock solution was prepared by dissolving paclitaxel in 1:1 (v/v) Cremophor EL/ethanol (95%) to a final paclitaxel concentration of […] (C-E paclitaxel solution). Next, a paclitaxel solution suitable for dosing was prepared by combining one volume of the C-E paclitaxel solution with 3 volumes of 0.9 weight % NaCl. This solution is designated as “Control”.
C-m-HDL (cmpd 20) was prepared as per Example 12.
Eighteen (18) female Sprague-Dawley rats were randomly assigned to 3 groups of 6 animals each. All animals were lightly anesthetized using isoflurane and dosed intraperitoneally on Days 1, 4, and 7 with paclitaxel at 4 mg/kg in a dose volume of 1.5 mL/kg, or intravenously with C-m-HDL (cmpd 20) at 4 mg/kg or vehicle (saline) via the tail vein using a dose volume of 1.5 mL/kg. Group I received saline, Group 2 received paclitaxel, and Group 3 received C-m-HDL (cmpd 20). On Day 11, rats in each group were lightly anesthetized using isoflurane within their home cage to minimize potential stress responses. Blood (˜200 μL) was collected into K3EDTA tubes prior to ACTH challenge (baseline). Rats were then challenged with a single intraperitoneal injection of ACTH (ACTH 1-24, Sigma-Aldrich A0298-1922) in normal saline at […] in a dose volume of 2 mL/kg. […] Plasma corticosterone content was determined with a commercially available ELISA kit.

SK-OV-3 cells = assay: Growth inhibition of SK-OV-3 cells, MTT assay after 72 hr; format: cell-based, human; conditions: conjugates delivered in C-m-HDLs, SEQ ID NO: 35 peptide, solvent lyophilization, FIG. 12A
Description: In this Example, the mole portions of components in the C-m-HDLs prepared by solvent lyophilization were POPC: egg SM: peptide: conjugate 5.6:2.4:2:1. 20 mM stock solutions of POPC and of egg SM were prepared in tert-butyl alcohol: water (8:2 v/v). […] Conjugates 20 and 30 were separately dissolved in tert-butyl alcohol: water (95:5) to a final concentration of 10 mM.
For C-m-HDL preparation, 2.8 mL of 20 mM POPC, 1.2 mL of 20 mM egg SM, 2 mL of 10 mM peptide, 1 mL of 10 mM conjugate, and 0.3 mL acetic acid were combined in a 20 mL glass vial. The combined solution was frozen at ≥−70° C. for ≥1 hr. The frozen vial was placed in the chamber of a lyophilizer set at a shelf temperature of −20° C. A vacuum between 100 to 150 mTorr was applied for ≥20 hr. The shelf temperature was raised to −10° C. and the vacuum was continued for ≥15 hr. The shelf temperature was then raised to 20° C. and the vacuum continued for 24 hr. The dried cake was dissolved in PBS to obtain C-m-HDLs. The uniformity of the C-m-HDLs was evaluated by SEC (Acclaim™ SEC-1000, 300 mm×4.6 mm column, 0.3 mL/min PBS mobile phase, 210 nm and 280 nm UV detection) and by dynamic light scattering. The phospholipid content was established with a commercially available, enzyme-based, colorimetric assay kit. Peptide and conjugate content were established by HPLC.
Two C-m-HDLs were prepared as above, containing either Conjugate 20 or Conjugate 30 were then tested for their growth inhibition activity against SK-OV-3 cells (ATCC). SK-OV-3 cells were grown in McCoy's-5A media supplemented with 10% fetal bovine serum and maintained in a 37° C. incubator under a 5% CO2 atmosphere. To assess growth inhibition, the growth medium of cells grown in 96-well plates was supplemented with various concentrations of C-m-HDL (cmpd 20), C-m-HDL (compd 30) or paclitaxel from a DMSO stock solution. The 96-well plates were incubated for 72 hr. The relative amount of live cells in each of the wells after 72 hr was determined with the MTT assay. […]

CC(=O)O[C@H]1C(=O)[C@@]2(C)[C@H]([C@H](OC(=O)c3ccccc3)[C@]3(O)C[C@H](OC(=O)[C@H](O)[C@@H](NC(=O)c4ccccc4)c4ccccc4)C(C)=C1C3(C)C)[C@]1(OC(C)=O)CO[C@@H]1C[C@@H]2O [paclitaxel]
adrenal toxicity (plasma corticosterone after ACTH challenge) [1]: lack of adrenal toxicity

Paclitaxel-δ-tocopherol conjugate with a cleavable carbonate bond [No. 82]
SK-OV-3 growth inhibition activity, delta-tocotrienol versus delta-tocopherol anchor (SK-OV-3 cells; listed as paclitaxel-delta-tocopherol): essentially equivalent | SK-OV-3 growth inhibition activity, delta-tocotrienol versus delta-tocopherol anchor (SK-OV-3 cells; listed as δ-tocopherol-paclitaxel): equivalent results

CC(=O)O[C@H]1C(=O)[C@@]2(C)[C@H]([C@H](OC(=O)c3ccccc3)[C@]3(O)C[C@H](OC(=O)[C@H](OC(=O)Oc4cc(C)c5c(c4)CC[C@@](C)(CC/C=C(\C)CC/C=C(\C)CCC=C(C)C)O5)[C@@H](NC(=O)c4ccccc4)c4ccccc4)C(C)=C1C3(C)C)[C@]1(OC(C)=O)CO[C@@H]1C[C@@H]2O [Conjugate 20, paclitaxel-delta-tocotrienol conjugate]
SK-OV-3 growth inhibition activity, delta-tocotrienol versus delta-tocopherol anchor (SK-OV-3 cells): equivalent results | SK-OV-3 growth inhibition activity, delta-tocotrienol versus delta-tocopherol anchor (SK-OV-3 cells; listed as paclitaxel-delta-tocotrienol): essentially equivalent
